Laboratory results taken from PubChem BioAssay AID248 (DTP/NCI, 2004).
Where “and” joins values, the source holds several entries; their conditions need not be identical. Equal values may be shown once. Toxic doses and inconclusive results are not listed.

Test system: L1210 leukemia ip in BDF1 mice, survival T/C
Experiment: NCI In Vivo Anticancer Drug Screen. Data for tumor model L1210 Leukemia (intraperitoneal) in B6D2F1 (BDF1) mice
Conditions: endpoint: mean survival time, higher = longer survival
How it was run: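 Tumor was transplanted into mice, which were then dosed with test compound or vehicle alone. Survival was recorded for each group, and the treated figure was expressed relative to the control figure.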

[1] = dose: 200.0 mg/kg/injection, schedule: Q01DX009 (ip), vehicle: other
[2] = dose: 100.0 mg/kg/injection, schedule: Q01DX001 (ip), vehicle: carboxymethylcellulose (CMC)
[3] = dose: 200.0 mg/kg/injection, schedule: Q01DX001 (ip), vehicle: carboxymethylcellulose (CMC)
[4] = dose: 400.0 mg/kg/injection, schedule: Q01DX001 (ip), vehicle: carboxymethylcellulose (CMC)
[5] = dose: 50.0 mg/kg/injection, schedule: Q01DX009 (ip), vehicle: saline with Tween-80
[6] = dose: 100.0 mg/kg/injection, schedule: Q01DX009 (ip), vehicle: saline with Tween-80
[7] = dose: 200.0 mg/kg/injection, schedule: Q01DX009 (ip), vehicle: saline with Tween-80
[8] = dose: 400.0 mg/kg/injection, schedule: Q01DX009 (ip), vehicle: saline with Tween-80
[9] = dose: 100.0 mg/kg/injection, schedule: Q01DX009 (ip), vehicle: Klucel (hydroxypropylcellulose) (HPC)
[10] = dose: 100.0 mg/kg/injection, schedule: Q04DX003 (ip), vehicle: Klucel (hydroxypropylcellulose) (HPC)
[11] = dose: 200.0 mg/kg/injection, schedule: Q01DX009 (ip), vehicle: Klucel (hydroxypropylcellulose) (HPC)
[12] = dose: 200.0 mg/kg/injection, schedule: Q04DX003 (ip), vehicle: Klucel (hydroxypropylcellulose) (HPC)
[13] = dose: 400.0 mg/kg/injection, schedule: Q01DX009 (ip), vehicle: Klucel (hydroxypropylcellulose) (HPC)
[14] = dose: 400.0 mg/kg/injection, schedule: Q04DX003 (ip), vehicle: Klucel (hydroxypropylcellulose) (HPC)
[15] = dose: 100.0 mg/kg/injection, schedule: Q04DX002 (ip), vehicle: Klucel (hydroxypropylcellulose) (HPC)
[16] = dose: 200.0 mg/kg/injection, schedule: Q04DX002 (ip), vehicle: Klucel (hydroxypropylcellulose) (HPC)

NNC(=O)c1ccc(S(N)(=O)=O)cc1
T/C (dose: 12.5 mg/kg/injection, schedule: Q01DX009 (ip), vehicle: water): 93 % of control
T/C (dose: 25.0 mg/kg/injection, schedule: Q01DX009 (ip), vehicle: water): 96 % of control
T/C (dose: 50.0 mg/kg/injection, schedule: Q01DX009 (ip), vehicle: water): 343 % of control
T/C (dose: 59.0 mg/kg/injection, schedule: Q01DX009 (ip), vehicle: other): 93 % of control and 103 % of control
T/C (dose: 89.0 mg/kg/injection, schedule: Q01DX009 (ip), vehicle: other): 97 % of control and 92 % of control
T/C (dose: 100.0 mg/kg/injection, schedule: Q01DX009 (ip), vehicle: water): 403 % of control
T/C (dose: 133.0 mg/kg/injection, schedule: Q01DX009 (ip), vehicle: other): 101 % of control and 87 % of control
T/C [1]: 99 % of control and 90 % of control
T/C (dose: 200.0 mg/kg/injection, schedule: Q01DX009 (ip), vehicle: water): 459 % of control
T/C (dose: 300.0 mg/kg/injection, schedule: Q01DX009 (ip), vehicle: other): 94 % of control and 99 % of control

O=C(OC1CCCC2CCCC21)c1ccc([N+](=O)[O-])cc1 (stereo not given)
T/C [2]: 93 % of control
T/C [3]: 95 % of control
T/C [4]: 98 % of control

O=C(Nc1ccc(Cl)c([N+](=O)[O-])c1)Oc1ccc2ccccc2c1
T/C (dose: 100.0 mg/kg/injection, schedule: Q01DX009 (ip), vehicle: other): 92 % of control
T/C [1]: 97 % of control
T/C (dose: 400.0 mg/kg/injection, schedule: Q01DX009 (ip), vehicle: other): 107 % of control

CCN(CC)C(=O)/C=C\c1ccccc1
T/C [5]: 102 % of control
T/C [6]: 102 % of control
T/C [7]: 112 % of control

COc1ccc(OC)c(NC(=O)c2cccc3ccccc23)c1
T/C (dose: 50.0 mg/kg/injection, schedule: Q01DX001 (ip), vehicle: saline with Tween-80): 102 % of control
T/C (dose: 100.0 mg/kg/injection, schedule: Q01DX001 (ip), vehicle: saline with Tween-80): 91 % of control
T/C [6]: 93 % of control and 96 % of control
T/C (dose: 100.0 mg/kg/injection, schedule: Q04DX002 (ip), vehicle: saline with Tween-80): 100 % of control and 91 % of control
T/C (dose: 100.0 mg/kg/injection, schedule: Q04DX003 (ip), vehicle: saline with Tween-80): 95 % of control
T/C (dose: 200.0 mg/kg/injection, schedule: Q01DX001 (ip), vehicle: saline with Tween-80): 95 % of control
T/C [7]: 105 % of control and 90 % of control
T/C (dose: 200.0 mg/kg/injection, schedule: Q04DX002 (ip), vehicle: saline with Tween-80): 113 % of control and 91 % of control
T/C (dose: 200.0 mg/kg/injection, schedule: Q04DX003 (ip), vehicle: saline with Tween-80): 95 % of control
T/C [8]: 87 % of control and 91 % of control
T/C (dose: 400.0 mg/kg/injection, schedule: Q04DX002 (ip), vehicle: saline with Tween-80): 94 % of control and 95 % of control
T/C (dose: 400.0 mg/kg/injection, schedule: Q04DX003 (ip), vehicle: saline with Tween-80): 94 % of control

CNNC(=O)c1ccccc1
T/C (dose: 6.25 mg/kg/injection, schedule: Q04DX002 (ip), vehicle: saline): 119 % of control
T/C (dose: 12.5 mg/kg/injection, schedule: Q04DX002 (ip), vehicle: saline): 97 % of control
T/C (dose: 25.0 mg/kg/injection, schedule: Q04DX002 (ip), vehicle: saline): 97 % of control
T/C (dose: 50.0 mg/kg/injection, schedule: Q04DX002 (ip), vehicle: saline): 94 % of control and 97 % of control
T/C (dose: 100.0 mg/kg/injection, schedule: Q04DX002 (ip), vehicle: saline): 98 % of control

COC1CCCCC1I (stereo not given)
T/C [5]: 95 % of control
T/C [6]: 95 % of control
T/C [7]: 93 % of control

Cc1ccc(S(=O)(=O)N(C)CCC#N)cc1
T/C [9]: 97 % of control
T/C [10]: 100 % of control
T/C [11]: 96 % of control
T/C [12]: 98 % of control
T/C [13]: 96 % of control
T/C [14]: 96 % of control

O=[N+]([O-])c1ccc(OCCOCCBr)c(Cl)c1
T/C [2]: 98 % of control and 101 % of control
T/C (dose: 100.0 mg/kg/injection, schedule: Q01DX009 (ip), vehicle: carboxymethylcellulose (CMC)): 101 % of control and 110 % of control
T/C (dose: 100.0 mg/kg/injection, schedule: Q04DX003 (ip), vehicle: carboxymethylcellulose (CMC)): 100 % of control and 103 % of control
T/C [3]: 98 % of control and 90 % of control
T/C (dose: 200.0 mg/kg/injection, schedule: Q01DX009 (ip), vehicle: carboxymethylcellulose (CMC)): 95 % of control and 97 % of control
T/C (dose: 200.0 mg/kg/injection, schedule: Q04DX003 (ip), vehicle: carboxymethylcellulose (CMC)): 100 % of control and 106 % of control
T/C [4]: 97 % of control and 101 % of control
T/C (dose: 400.0 mg/kg/injection, schedule: Q01DX009 (ip), vehicle: carboxymethylcellulose (CMC)): 95 % of control and 101 % of control
T/C (dose: 400.0 mg/kg/injection, schedule: Q04DX003 (ip), vehicle: carboxymethylcellulose (CMC)): 94 % of control

O=C(O)c1ccc2c(c1)C(Br)(Br)C2(Br)Br
T/C [6]: 98 % of control
T/C [7]: 101 % of control
T/C [8]: 103 % of control

CCNc1nc(Cl)nc(-c2cn(-c3ccccc3)c3ccccc23)n1
T/C (dose: 100.0 mg/kg/injection, schedule: Q01DX001 (ip), vehicle: saline): 93 % of control
T/C [6]: 101 % of control
T/C (dose: 100.0 mg/kg/injection, schedule: Q04DX003 (ip), vehicle: saline): 99 % of control
T/C (dose: 200.0 mg/kg/injection, schedule: Q01DX001 (ip), vehicle: saline): 90 % of control
T/C [7]: 92 % of control
T/C (dose: 200.0 mg/kg/injection, schedule: Q04DX003 (ip), vehicle: saline): 92 % of control
T/C (dose: 400.0 mg/kg/injection, schedule: Q01DX001 (ip), vehicle: saline): 88 % of control
T/C (dose: 400.0 mg/kg/injection, schedule: Q04DX003 (ip), vehicle: saline): 94 % of control

COC1OC2COC(c3ccccc3)OC2C(OC(C)=O)C1OS(=O)(=O)c1ccc(C)cc1 (stereo not given)
T/C [15]: 109 % of control
T/C [16]: 88 % of control
T/C (dose: 400.0 mg/kg/injection, schedule: Q04DX002 (ip), vehicle: Klucel (hydroxypropylcellulose) (HPC)): 109 % of control

N#Cc1ccc(/C=N\NC(=O)CCCC(=O)N/N=C/c2ccc(C#N)cc2)cc1
T/C (dose: 50.0 mg/kg/injection, schedule: Q01DX001 (ip), vehicle: other): 91 % of control
T/C (dose: 100.0 mg/kg/injection, schedule: Q01DX001 (ip), vehicle: other): 91 % of control
T/C (dose: 400.0 mg/kg/injection, schedule: Q01DX001 (ip), vehicle: other): 91 % of control

Clc1ccc(/C=C2\c3cc(Cl)ccc3-c3c(Cl)cc(Cl)cc32)cc1
T/C (dose: 100.0 mg/kg/injection, schedule: Q01DX001 (ip), vehicle: Klucel (hydroxypropylcellulose) (HPC)): 91 % of control
T/C [9]: 91 % of control
T/C [10]: 86 % of control
T/C (dose: 200.0 mg/kg/injection, schedule: Q01DX001 (ip), vehicle: Klucel (hydroxypropylcellulose) (HPC)): 93 % of control
T/C [11]: 90 % of control
T/C [12]: 91 % of control
T/C (dose: 400.0 mg/kg/injection, schedule: Q01DX001 (ip), vehicle: Klucel (hydroxypropylcellulose) (HPC)): 95 % of control
T/C [13]: 86 % of control
T/C [14]: 93 % of control

Nc1ncnc(NC2CCCCC2)n1
T/C (dose: 6.25 mg/kg/injection, schedule: Q01DX009 (ip), vehicle: Klucel (hydroxypropylcellulose) (HPC)): 100 % of control
T/C (dose: 12.5 mg/kg/injection, schedule: Q01DX009 (ip), vehicle: Klucel (hydroxypropylcellulose) (HPC)): 94 % of control
T/C (dose: 25.0 mg/kg/injection, schedule: Q01DX009 (ip), vehicle: Klucel (hydroxypropylcellulose) (HPC)): 97 % of control and 98 % of control
T/C (dose: 50.0 mg/kg/injection, schedule: Q01DX009 (ip), vehicle: Klucel (hydroxypropylcellulose) (HPC)): 111 % of control
T/C [10]: 91 % of control
T/C [14]: 98 % of control

N#CC1(c2ccccc2)OC1(c1ccccc1)c1ccccc1 (stereo not given)
T/C [9]: 89 % of control
T/C [15]: 88 % of control
T/C [11]: 91 % of control
T/C [16]: 92 % of control
T/C [13]: 88 % of control

NC(=S)N/N=C(/Cc1ccccc1)CC(O)(C(F)(F)F)C(F)(F)F
T/C (dose: 50.0 mg/kg/injection, schedule: Q01DX009 (ip), vehicle: gum acacia): 92 % of control
T/C (dose: 100.0 mg/kg/injection, schedule: Q01DX009 (ip), vehicle: gum acacia): 91 % of control
T/C (dose: 100.0 mg/kg/injection, schedule: Q04DX003 (ip), vehicle: gum acacia): 94 % of control
T/C (dose: 200.0 mg/kg/injection, schedule: Q04DX003 (ip), vehicle: gum acacia): 105 % of control
